Among the data in PubChem BioAssay (NCI) are TGI and GI50 values, retold here.

Test systems include HCT-15 colon; KM20L2 colon; KM12 colon; BT-549 breast; K-562 leukemia; M19-MEL melanoma; CCRF-CEM leukemia; HCC-2998 colon; SW-620 colon; MCF7 breast; DMS 273 small cell lung.
Holding throughout (assay): growth of human tumour cells (NCI), 48 h

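1) Cells in 96-well plates. 2) Compound, 48 h, 5 concentrations. 3) Linear interpolation between surrounding doses. 4) Unreached endpoint = highest concentration. GI50 = concentration required for 50% inhibition of growth. The concentration for full growth arrest is given as TGI.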

Regarding `Cc1[nH]c(=O)nc(N/N=C/c2ccc(Cl)cc2)c1C(=O)Nc1ccc(Cl)cc1`, the TGI in the experiment with HCT-15 colon was more than 100 µM; with KM20L2 colon, more than 100 µM; in the experiment on KM12 colon, more than 100 µM; with BT-549 breast it was more than 100 µM; in the experiment on K-562 leukemia, more than 85.1 µM; with M19-MEL melanoma, more than 100 µM. Moreover, the TGI with CCRF-CEM leukemia was more than 100 µM; with HCC-2998 colon, more than 100 µM; in the experiment with SW-620 colon, more than 89.3 µM; in the experiment on MCF7 breast, more than 100 µM; in the experiment on DMS 273 small cell lung it was more than 100 µM.
`CN(C)CCC(=O)N1CCc2c([nH]c3ccccc23)C1c1cccnc1` (stereo unspecified): the TGI with HCT-15 colon, in the experiment on KM20L2 colon, with KM12 colon, in the experiment with K-562 leukemia, with M19-MEL melanoma and in the experiment with CCRF-CEM leukemia was more than 100 µM each time. Moreover, the TGI with HCC-2998 colon, in the experiment on SW-620 colon and with DMS 273 small cell lung was more than 100 µM in each case.
For the compound `CCOC(=O)N1CCc2cc(OC)c(OC)cc2/C1=C/c1ccc(OC)c(OC)c1`, the TGI in the experiment with HCT-15 colon, in the experiment with KM20L2 colon, with KM12 colon, in the experiment with K-562 leukemia, in the experiment with M19-MEL melanoma and in the experiment on CCRF-CEM leukemia was more than 100 µM in each case. Besides, the TGI with HCC-2998 colon, with SW-620 colon and with DMS 273 small cell lung was more than 100 µM each time.
For the compound `O=C(Nc1ccccc1[N+](=O)[O-])C(=O)C(C(=O)c1ccccc1-c1ccccc1)C1OC(=O)c2ccccc21` (stereo unspecified), the TGI in the experiment with HCT-15 colon is 30 µM; in the experiment with KM20L2 colon, 34.9 µM; in the experiment with KM12 colon, 30.6 µM; in the experiment with K-562 leukemia, 60.6 µM; with M19-MEL melanoma it was 27.5 µM; in the experiment on CCRF-CEM leukemia, 76.1 µM. Further, the figures for the TGI in the experiment on HCC-2998 colon, in the experiment with SW-620 colon and in the experiment on DMS 273 small cell lung were 28.2 µM, 36.7 µM and 38.5 µM, respectively.
For `O=C1[C@@H]2C(c3ccncc3)=NO[C@@H]2C(=O)N1c1ccc(Cc2ccc(N3C(=O)[C@H]4C(c5ccncc5)=NO[C@H]4C3=O)cc2)cc1`, the TGI in the experiment on HCT-15 colon, in the experiment with KM20L2 colon, with KM12 colon, with K-562 leukemia, in the experiment on M19-MEL melanoma and in the experiment on CCRF-CEM leukemia was more than 100 µM in each case. Further, the TGI in the experiment on HCC-2998 colon, with SW-620 colon and in the experiment on DMS 273 small cell lung was more than 100 µM throughout.
For `O=C1c2ccccc2C(=O)c2sc(Nc3ccc(Cl)cc3)nc21`, the TGI is 3.8 µM in the experiment with HCT-15 colon; 33.9 µM with KM20L2 colon; 5.03 µM in the experiment with KM12 colon; 11.7 µM in the experiment with BT-549 breast; 5.12 µM in the experiment with K-562 leukemia; 1.56 µM with M19-MEL melanoma. Further, the TGI turned out to be 4 µM in the experiment on CCRF-CEM leukemia, 7.43 µM in the experiment with HCC-2998 colon, 3.31 µM in the experiment with SW-620 colon and 3.74 µM in the experiment with DMS 273 small cell lung. Moreover, in the experiment on BT-549 breast, the GI50 is 2.87 µM.
`C/C(CC(=O)Nc1ccccc1)=N\NC(N)=S`: the TGI in the experiment on KM20L2 colon, in the experiment on KM12 colon, in the experiment on K-562 leukemia, in the experiment with M19-MEL melanoma, in the experiment on CCRF-CEM leukemia and in the experiment on HCC-2998 colon was more than 100 µM in each case. Moreover, the TGI with SW-620 colon and in the experiment with DMS 273 small cell lung was more than 100 µM throughout.
Regarding `Cc1cccc(C)c1NC(=O)CCCC(=O)C(C#N)c1ccc(Cl)cc1` (stereo unspecified), the TGI in the experiment with HCT-15 colon, with KM20L2 colon, in the experiment on KM12 colon, in the experiment with K-562 leukemia, with M19-MEL melanoma and with CCRF-CEM leukemia was more than 100 µM each time. The TGI in the experiment on HCC-2998 colon, in the experiment on SW-620 colon and in the experiment with DMS 273 small cell lung was more than 100 µM in each case.
Turning to `C=C[Si](C)(C)COC(=O)/C(C#N)=C/C=C/c1ccccc1`, the TGI with HCT-15 colon, in the experiment with KM20L2 colon, with KM12 colon, with K-562 leukemia, with M19-MEL melanoma and in the experiment on CCRF-CEM leukemia was more than 100 µM in each case. Besides, the TGI in the experiment on HCC-2998 colon, with SW-620 colon and in the experiment with DMS 273 small cell lung was more than 100 µM throughout.
On to `Cc1ccccc1NC(=O)C(=O)CC(=O)C1CCOC1=O` (stereo unspecified), for which the TGI with HCT-15 colon, with KM20L2 colon, in the experiment on KM12 colon, in the experiment on K-562 leukemia, with M19-MEL melanoma and in the experiment with CCRF-CEM leukemia was more than 100 µM each time. Moreover, the TGI in the experiment with HCC-2998 colon, with SW-620 colon and in the experiment on DMS 273 small cell lung was more than 100 µM in each case.
For `CNC(=O)/C(=C/c1ccc(OC)cc1)c1cc(OC)c(OC)c(OC)c1`, the TGI is more than 100 µM with HCT-15 colon; 2.72 µM in the experiment with KM20L2 colon; more than 83.9 µM in the experiment on KM12 colon; more than 100 µM in the experiment with BT-549 breast; more than 80.9 µM with K-562 leukemia; more than 100 µM in the experiment on M19-MEL melanoma. In addition, the TGI was more than 100 µM with CCRF-CEM leukemia; 17.7 µM in the experiment on HCC-2998 colon; more than 100 µM with SW-620 colon; more than 51.4 µM with MCF7 breast; more than 100 µM with DMS 273 small cell lung.
On to `COc1cc(/C=C2\NC(=S)C3Cc4c(OC)c(C)c(OC)c(OC)c4C2N3C)c(OC)c(C)c1OC` (stereo unspecified), for which the TGI in the experiment on KM20L2 colon, in the experiment with KM12 colon, in the experiment with K-562 leukemia, with M19-MEL melanoma, in the experiment with CCRF-CEM leukemia and in the experiment with HCC-2998 colon was more than 100 µM throughout. The TGI in the experiment with SW-620 colon and with DMS 273 small cell lung was more than 100 µM each time.
With `COC1C(O)CC(OC2CC(OC3CC(O[C@@H]4C(=O)c5c(cc6cc(OC7CC(OC8CC(O)C(O)C(C)O8)C(O)C(C)O7)c(C)c(O)c6c5O)C[C@H]4[C@H](OC)C(=O)[C@@H](O)[C@@H](C)O)OC(C)C3O)OC(C)C2O)OC1C` (stereo partly specified), the TGI is 22 µM with HCT-15 colon; 0.533 µM with KM20L2 colon; more than 12 µM with KM12 colon; 11.2 µM in the experiment with BT-549 breast; more than 100 µM with K-562 leukemia; more than 100 µM with M19-MEL melanoma. The TGI in the experiment on CCRF-CEM leukemia was more than 100 µM; in the experiment on HCC-2998 colon, 0.114 µM; in the experiment with SW-620 colon it was more than 100 µM; in the experiment with DMS 273 small cell lung, 1.67 µM. Besides, the GI50 is less than 0.019 µM with K-562 leukemia and 0.0329 µM in the experiment on CCRF-CEM leukemia.
As for `CN(C)CCC(/C=C/c1ccccc1)=N\Nc1ccc(Cl)cc1`, the TGI with HCT-15 colon came out at 15.2 µM; in the experiment on KM20L2 colon, 3.62 µM; in the experiment with KM12 colon it was 10.9 µM; in the experiment on K-562 leukemia, 5.02 µM; in the experiment with M19-MEL melanoma, 19.7 µM; in the experiment on CCRF-CEM leukemia it was 11 µM. Further, the TGI was determined as 3.53 µM in the experiment on HCC-2998 colon, 14.7 µM with SW-620 colon and 4.66 µM in the experiment on DMS 273 small cell lung.
Take `Cc1cc(Cl)ccc1N1C(=O)C(=O)C(c2nc3ccccc3o2)C(=O)C1=O`: the TGI with HCT-15 colon, in the experiment on KM20L2 colon, in the experiment on KM12 colon, with M19-MEL melanoma, in the experiment on CCRF-CEM leukemia and in the experiment on HCC-2998 colon was more than 100 µM throughout. In addition, the TGI in the experiment with SW-620 colon and with DMS 273 small cell lung was more than 100 µM each time.
